# Reference: patent US20240315992A1, “AMINOXY ACID-BASED ANTIBACTERIAL COMPOUNDS AND METHODS THEREOF” (The University of Hong Kong, priority 2023, published 2024)
# System: multidrug resistant Staphylococcus aureus Mu3
# Assay: MIC by CLSI broth micro-dilution, MRSA Mu3
# Type: cell-based
# Settings: MRSA, CLSI broth micro-dilution, CAMH, read-out: Minimum inhibitory concentration (μM) in MRSA Mu3
# Description: Aminoxy acids were synthesized by the standard peptide coupling procedures. Minimum inhibitory concentration was determined using CLSI broth micro-dilution method in 96-wells microtitre plates. Minimum inhibitory concentration is defined as the lowest concentration of the compound that inhibits visible growth of the bacteria. All experiments were performed three times. 24 compounds including aminoxy acid monomers and dipeptides have been identified to show toxicity against multidrug resistant Staphylococcus aureus Mu3 and summarized in Table 1. The minimum inhibitory concentration of compound 8 and compound 35 on other gram-positive bacteria was also evaluated and summarized in Table 2. […] As shown in FIGS. 3A-3B there are no observable hemolysis for compound 8 and compound 35 towards human red blood cell.
# Bacteria were streaked from the glycerol stock into BHI agar and were incubated overnight. Single colony was picked for the overnight culture in cation-adjusted Mueller Hinton broth (CAMH), LB or BHI. The overnight culture was sub-cultured and regrew to exponential phase for the experiment.
# MIC was determined by CLSI broth micro-dilution method in 96-wells microtitre plates. For compounds dissolved in water, 100 μL of 2× testing concentration was added to the first well of each column, followed by two-fold serial dilution for successive wells with 50 μL medium. For chemical compounds dissolved in DMSO, the compounds were two-fold serial diluted by DMSO in a DMSO-compatible 96-well plate. 1 μL of compound in DMSO was transferred into 96-wells microtitre plate containing 50 μL medium to give 2× testing concentration. An overnight culture of bacteria was grown into exponential phase. The bacteria culture was diluted to 1×10^6 CFU/mL and 50 μL of diluted culture were added into each well. The test plates were kept in a 37° C. incubator overnight. Optical density was recorded by DTX 880 multimode detector (Beckman Coulter, California, US). MIC is defined as the lowest concentration of the compound that inhibits visible growth of bacteria. Biological replicates were performed. CAMH was used for bacteria culture and MIC test except S. pneumoniae, L. monocytogenes, E. faecalis and M. smegmatis for which BHI was used as culture medium
row,MIC [µM],SMILES
1,6.25,CC(C)C[C@H](ONC(=O)[C@@H](COCc1ccccc1)ONC(=O)c1cc(C(F)(F)F)cc(C(F)(F)F)c1)C(=O)NC12CC3CC(CC(C3)C1)C2 [Compound 26]
2,12.5,CC(C)(C)OC(=O)NCCCC[C@@H](ONC(=O)[C@@H](COCc1ccccc1)ONC(=O)c1cc(C(F)(F)F)cc(C(F)(F)F)c1)C(=O)Nc1ccccc1 [Compound 19]
3,> 12.5,CC(C)C[C@H](ONC(=O)[C@@H](COCc1ccccc1)ONC(=O)C(C)(C)C)C(=O)Nc1ccc2c(c1)OC(F)(F)O2 [Compound 42]
4,> 12.5,CC(C)C[C@H](ONC(=O)[C@@H](COCc1ccccc1)ONC(=O)c1cc(C(F)(F)F)cc(C(F)(F)F)c1)C(=O)N1CCOCC1 [Compound 32]
5,3.13,CC(C)C[C@H](ONC(=O)[C@H](COCc1ccccc1)ONC(=O)c1cc(C(F)(F)F)cc(C(F)(F)F)c1)C(=O)Nc1ccccc1 [Compound 6]
6,> 12.5,CC(C)C[C@H](ONC(=O)[C@@H](COCc1ccccc1)ONC(=O)c1cc(C(F)(F)F)cc(C(F)(F)F)c1)C(=O)NOCc1ccccc1 [Compound 40]
7,6.25,O=C(NO[C@H](COCc1ccccc1)C(=O)NO[C@H](Cc1c[nH]c2ccccc12)C(=O)Nc1ccccc1)c1cc(C(F)(F)F)cc(C(F)(F)F)c1 [Compound 10]
8,> 12.5,CC(C)C[C@H](ONC(=O)[C@@H](COCc1ccccc1)ONC(=O)c1cc(C(F)(F)F)cc(C(F)(F)F)c1)C(=O)Nc1ccc2cc[nH]c2c1 [Compound 23]
9,> 12.5,CC(C)C[C@H](ONC(=O)[C@@H](COCc1ccccc1)ONC(=O)c1ccc2ccccc2c1)C(=O)Nc1ccc2c(c1)OC(F)(F)O2 [Compound 46]
10,> 12.5,CC(C)C[C@H](ONC(=O)[C@@H](COCc1ccccc1)ONC(=O)c1cc(C(F)(F)F)cc(C(F)(F)F)c1)C(=O)NC1CCCCC1 [Compound 22]
11,> 12.5,CC(C)C[C@H](ONC(=O)[C@@H](COCc1ccccc1)ONS(=O)(=O)c1cc(C(F)(F)F)cc(C(F)(F)F)c1)C(=O)Nc1ccc2c(c1)OC(F)(F)O2 [Compound 55]
12,3.13,CC(C)C[C@H](ONC(=O)[C@@H](COCc1ccccc1)ONC(=O)c1cc(C(F)(F)F)cc(C(F)(F)F)c1)C(=O)Nc1ccc(F)cc1 [Compound 36]
13,> 12.5,CC(C)C[C@H](ONC(=O)[C@@H](COCc1ccccc1)ONS(=O)(=O)c1ccc(C(F)(F)F)cc1)C(=O)Nc1ccc2c(c1)OC(F)(F)O2 [Compound 54]
14,3.13,CC(C)(C)OC(=O)C[C@@H](ONC(=O)[C@@H](COCc1ccccc1)ONC(=O)c1cc(C(F)(F)F)cc(C(F)(F)F)c1)C(=O)Nc1ccccc1 [Compound 14]
15,> 12.5,CC(C)C[C@H](ONC(=O)[C@@H](COCc1ccccc1)ONC(=O)c1cccc2cccnc12)C(=O)Nc1ccc2c(c1)OC(F)(F)O2 [Compound 49]
16,> 12.5,CC(C)C[C@H](ONC(=O)[C@@H](COCc1ccccc1)ONC(=O)C12CC3CC(CC(C3)C1)C2)C(=O)Nc1ccc2c(c1)OC(F)(F)O2 [Compound 43]
17,> 12.5,CC(C)C[C@H](ONC(=O)[C@@H](COCc1ccccc1)ONC(=O)c1cc(C(F)(F)F)cc(C(F)(F)F)c1)C(=O)Nc1ccc(N2CCOCC2)cc1 [Compound 33]
18,12.5,CC(C)(C)OC(=O)[C@@H](COCc1ccccc1)ONC(=O)c1cc(C(F)(F)F)cc(C(F)(F)F)c1 [Compound 1]
19,3.13,Cc1cc(C)cc(NC(=O)[C@H](CC(C)C)ONC(=O)[C@@H](COCc2ccccc2)ONC(=O)c2cc(C(F)(F)F)cc(C(F)(F)F)c2)c1 [Compound 31]
20,> 12.5,O=C(O)C[C@@H](ONC(=O)[C@@H](COCc1ccccc1)ONC(=O)c1cc(C(F)(F)F)cc(C(F)(F)F)c1)C(=O)Nc1ccccc1 [Compound 18]
21,> 12.5,CC(C)C[C@H](ONC(=O)[C@@H](COCc1ccccc1)ONC(=O)c1c(F)cccc1F)C(=O)Nc1ccc2c(c1)OC(F)(F)O2 [Compound 48]
22,3.13,CC(C)C[C@@H](ONC(=O)c1cc(C(F)(F)F)cc(C(F)(F)F)c1)C(=O)Nc1ccccc1 [Compound 3]
23,6.25,CC(C)C[C@H](ONC(=O)[C@@H](COCc1ccccc1)ONC(=O)c1cc(C(F)(F)F)cc(C(F)(F)F)c1)C(=O)Nc1ccc(C#N)cc1 [Compound 37]
24,> 12.5,CC(C)C[C@H](ONC(=O)[C@@H](COCc1ccccc1)ONC(=O)c1cc(C(F)(F)F)cc(C(F)(F)F)c1)C(=O)NC1CC1 [Compound 28]
25,> 12.5,CC(C)C[C@H](ONC(=O)[C@@H](COCc1ccccc1)NC(=O)c1cc(C(F)(F)F)cc(C(F)(F)F)c1)C(=O)Nc1ccccc1 [Compound 57]

row,MIC [µM],SMILES
1,> 12.5,CC(C)C[C@H](ONC(=O)[C@@H](COCc1ccccc1)ONC(=O)c1cc(C(F)(F)F)cc(C(F)(F)F)c1)C(=O)Nc1nccs1 [Compound 21]
2,> 12.5,Cc1ccc(S(=O)(=O)NO[C@H](COCc2ccccc2)C(=O)NO[C@@H](CC(C)C)C(=O)Nc2ccc3c(c2)OC(F)(F)O3)cc1 [Compound 53]
3,> 12.5,CC(C)C[C@H](ONC(=O)[C@@H](COCc1ccccc1)ONC(=O)c1cc(C(F)(F)F)cc(C(F)(F)F)c1)C(=O)NOc1ccccc1 [Compound 41]
4,> 12.5,CC(C)C[C@H](ONC(=O)[C@@H](COCc1ccccc1)ONC(=O)c1ccc[nH]1)C(=O)Nc1ccc2c(c1)OC(F)(F)O2 [Compound 51]
5,6.25,CC(C)C[C@H](ONC(=O)[C@@H](COCc1ccccc1)ONC(=O)c1cc(C(F)(F)F)cc(C(F)(F)F)c1)C(=O)Nc1ccc2c(c1)OCO2 [Compound 34]
6,> 12.5,CC(C)CNC(=O)[C@H](CC(C)C)ONC(=O)[C@@H](COCc1ccccc1)ONC(=O)c1cc(C(F)(F)F)cc(C(F)(F)F)c1 [Compound 24]
7,6.25,CC(C)C[C@H](NC(=O)[C@@H](COCc1ccccc1)ONC(=O)c1cc(C(F)(F)F)cc(C(F)(F)F)c1)C(=O)Nc1ccccc1 [Compound 56]
8,1.56,CC(C)C[C@H](ONC(=O)[C@@H](COCc1ccccc1)ONC(=O)c1cc(C(F)(F)F)cc(C(F)(F)F)c1)C(=O)Nc1ccc2ccccc2c1 [Compound 39]
9,> 12.5,CC(C)(C)OC(=O)[C@@H](COCc1ccccc1)ONC(=O)[C@@H](COCc1ccccc1)ONC(=O)c1cc(C(F)(F)F)cc(C(F)(F)F)c1 [Compound 4]
10,> 12.5,NCCCC[C@@H](ONC(=O)[C@@H](COCc1ccccc1)ONC(=O)c1cc(C(F)(F)F)cc(C(F)(F)F)c1)C(=O)Nc1ccccc1 [Compound 20]
11,1.56,CC(C)C[C@H](ONC(=O)[C@@H](COCc1ccccc1)ONC(=O)c1cc(C(F)(F)F)cc(C(F)(F)F)c1)C(=O)Nc1ccc(C(F)(F)F)cc1 [Compound 38]
12,6.25,CC(C)C[C@H](ONC(=O)[C@@H](COCc1ccccc1)ONC(=O)c1cc(C(F)(F)F)cc(C(F)(F)F)c1)C(=O)Nc1cccc2cc[nH]c12 [Compound 25]
13,> 12.5,Cc1cc(C)cc(C(=O)NO[C@H](COCc2ccccc2)C(=O)NO[C@@H](CC(C)C)C(=O)Nc2ccc3c(c2)OC(F)(F)O3)c1 [Compound 45]
14,> 12.5,CC(C)C[C@H](ONC(=O)[C@@H](COCc1ccccc1)ONC(=O)c1cc(C(F)(F)F)cc(C(F)(F)F)c1)C(=O)Nc1cncnc1 [Compound 27]
15,> 12.5,CC(C)C[C@H](ONC(=O)[C@@H](COCc1ccccc1)ONC(=O)c1ccc(F)cc1)C(=O)Nc1ccc2c(c1)OC(F)(F)O2 [Compound 47]
16,6.25,CC(C)(C)OC[C@@H](ONC(=O)[C@@H](COCc1ccccc1)ONC(=O)c1cc(C(F)(F)F)cc(C(F)(F)F)c1)C(=O)Nc1ccccc1 [Compound 13]
17,> 12.5,C[C@@H](ONC(=O)[C@@H](COCc1ccccc1)ONC(=O)c1cc(C(F)(F)F)cc(C(F)(F)F)c1)C(=O)Nc1ccccc1 [Compound 17]
18,> 12.5,O=C(NO[C@H](COCc1ccccc1)C(=O)NO[C@H](CO)C(=O)Nc1ccccc1)c1cc(C(F)(F)F)cc(C(F)(F)F)c1 [Compound 15]
19,3.13,CC(C)C[C@H](ONC(=O)[C@@H](COCc1ccccc1)ONC(=O)c1ccc2c(c1)OC(F)(F)O2)C(=O)Nc1ccc2c(c1)OC(F)(F)O2 [Compound 52]
20,3.13,CC(C)C[C@@H](ONC(=O)[C@H](COCc1ccccc1)ONC(=O)c1cc(C(F)(F)F)cc(C(F)(F)F)c1)C(=O)Nc1ccccc1 [Compound 7]
21,> 12.5,O=C(CONC(=O)[C@@H](COCc1ccccc1)ONC(=O)c1cc(C(F)(F)F)cc(C(F)(F)F)c1)Nc1ccccc1 [Compound 16]
22,> 12.5,CC(C)C[C@H](ONC(=O)[C@@H](COCc1ccccc1)ONC(=O)c1cc(C(F)(F)F)cc(C(F)(F)F)c1)C(=O)OC(C)(C)C [Compound 5]
23,> 12.5,Cc1noc(C)c1C(=O)NO[C@H](COCc1ccccc1)C(=O)NO[C@@H](CC(C)C)C(=O)Nc1ccc2c(c1)OC(F)(F)O2 [Compound 50]
24,> 12.5,CC(C)C[C@H](ONC(=O)[C@@H](COCc1ccccc1)ONC(=O)c1ccccc1)C(=O)Nc1ccc2c(c1)OC(F)(F)O2 [Compound 44]
25,6.25,O=C(NO[C@H](COCc1ccccc1)C(=O)Nc1ccccc1)c1cc(C(F)(F)F)cc(C(F)(F)F)c1 [Compound 2]
